Results reported in publication PMC6825211 (Nature Communications, 2019).
Several values for one entry are separate records, joined by “and”; a condition that tells them apart may be missing. Identical values can stand only once.

Tests used:
[1] = tested on: 250 kinases; assay: Nanosyn panel of 250 biochemical kinase assays; conditions: 3 µM, of 250 kinases
Procedure: inhibition was determined for each assay.

[2] = tested on: human islets; assay: β-cell apoptosis (TUNEL/insulin) under diabetogenic conditions; format: cell-based; conditions: for mean TUNEL/isolation/%: 72 h
Procedure: . pThr183), caspase-3 cleavage, and GAPDH or actin were analyzed by western blotting. […] Scale bar, 100 μm. […]; all by Student’s t tests.
Human islets were isolated from eight pancreases of nondiabetic organ donors at PRODO Labs and at Lille University and cultured on extracellular matrix-coated dishes (Novamed, Jerusalem, Israel)[62] or on Biocoat Collagen I coated dishes (#356400, Corning, ME, USA). […] The clonal rat β-cell line INS-1E was kindly provided by Dr. Claes Wollheim, Geneva & Lund University. Human islets were cultured in complete CMRL-1066 (Invitrogen) medium at 5.5 mM glucose, mouse islets and INS-1E cells at complete RPMI-1640 medium at 11.1 mM glucose. […] . Palmitic acid (Sigma) was dissolved at 10 mmol/l in RPMI-1640 medium containing 11% fatty acid–free bovine serum albumin (BSA) (Sigma) under an N2-atmosphere and added to the culture at 0.5 mM[64]. […] . Isolated human islets or INS-1E cells were infected with adenovirus carrying LacZ as control or MST1 or LATS2 (all Vector Biolabs), at a multiplicity of infection of 100 (human islets) or 20 (INS-1E) for 4 h[11]. Adenovirus was subsequently washed off with PBS and replaced by fresh medium with 10% FBS and the respective analysis performed after 48 h post infection.
Mouse pancreases were dissected and fixed in 4% formaldehyde at 4 °C for 12 h before embedding in paraffin[62]. Two-four-micrometer sections were deparaffinized, rehydrated, and incubated overnight at 4 °C with anti-PDX-1 (Abcam; #47267), anti-Glut2 (Chemicon; #07-1402), anti-Ki67 (Dako; #M7249), anti-phospho-Histone H3 (Ser10; Merck #06-570), and anti-NKX6.1 (DSHB, University of Iowa #F55A12[66]) in combination with TSA (Invitrogen #T30955), or for 2 h at room temperature with anti-insulin (Dako; A0546) antibodies (all at a dilution of 1:100, except anti-PDX-1, which was diluted 1:400) followed by fluorescein isothiocyanate (FITC)- or Cy3-conjugated secondary antibodies (Jackson ImmunoResearch Laboratories, West Grove, PA). Slides were mounted with Vectashield with 4′6-diamidino-2-phenylindole (DAPI) (Vector Labs). β-cell apoptosis was analyzed by the terminal deoxynucleotidyl transferase-mediated dUTP nick-end labeling (TUNEL) technique according to the manufacturer’s instructions (In Situ Cell Death Detection Kit, TMR red; Roche) and double stained for insulin. Fluorescence was analyzed by using a Nikon MEA53200 (Nikon GmbH, Dusseldorf, Germany) microscope, and images were acquired by using NIS-Elements software (Nikon).

[3] = tested on: MLD–STZ C57BL/6J mice; assay: MLD–STZ model: intraperitoneal insulin tolerance test (ipITT); format: in vivo, mouse; design: ipITT glucose: unit not given here
Procedure: C57Bl/6J mice were injected with 40 mg/kg streptozotocin or citrate buffer for 5 consecutive days. […] In d, basal glucose values were normalized to 100%. e Insulin secretion measured from retro-orbital blood draw during an ipGTT measured before (0 min) and 15 min after glucose injection; data are expressed as the ratio of secreted insulin at 15 min/0 min (stimulatory index). f The ratio of secreted insulin and glucose is calculated at fed state. g–i Mice were killed at day 35. g β-cell mass (given as percentage of the whole pancreatic section from ten sections spanning the width of the pancreas) and quantitative analyses from triple staining for h TUNEL or i Ki67, insulin, and DAPI expressed as percentage of TUNEL- or Ki67-positive β-cells ±SEM. An average number of 2331 (h), or 26369 (i) β-cells were counted. n = 9 mice/group for (a); n = 4–12 for (b); n = 5–15 for (c) and (d); n = 12–19 for (e); n = 8–14 for (f); n = 4–9 for (g); n = 4–11 for (h); and n = 6–11 mice/groupfor (i); all from three independent experiments).
For intraperitoneal glucose tolerance tests, mice were fasted 12 h overnight and injected i.p. with glucose (40%; B.Braun, Melsungen, Germany) at a dose of 1 g/kg body weight. Blood samples were obtained at time points 0, 15, 30, 60, 90, and 120 min for glucose measurements by using a Glucometer. For i.p. insulin tolerance tests, mice were injected with 0.75 U/kg body weight recombinant human insulin (Novolin, Novo Nordisk) after 4–5-h fasting, and glucose concentration was determined with the Glucometer. Insulin secretion was measured before (0 min) and after (15 and 30 min) i.p. injection of glucose (2 g/kg) and measured by using ultrasensitive mouse Elisa kit (ALPCO Diagnostics, Salem, NH).

[4] = tested on: MST family members; design: method as in PMID 22037378; conditions: cited from earlier work
[5] = target: ABL1 (Homo sapiens, UniProt P00519); assay: Nanosyn kinase profiling, mobility shift assay; conditions: read-out: % inhibition by neratinib
Sequence of ABL1 (P00519 whole entry): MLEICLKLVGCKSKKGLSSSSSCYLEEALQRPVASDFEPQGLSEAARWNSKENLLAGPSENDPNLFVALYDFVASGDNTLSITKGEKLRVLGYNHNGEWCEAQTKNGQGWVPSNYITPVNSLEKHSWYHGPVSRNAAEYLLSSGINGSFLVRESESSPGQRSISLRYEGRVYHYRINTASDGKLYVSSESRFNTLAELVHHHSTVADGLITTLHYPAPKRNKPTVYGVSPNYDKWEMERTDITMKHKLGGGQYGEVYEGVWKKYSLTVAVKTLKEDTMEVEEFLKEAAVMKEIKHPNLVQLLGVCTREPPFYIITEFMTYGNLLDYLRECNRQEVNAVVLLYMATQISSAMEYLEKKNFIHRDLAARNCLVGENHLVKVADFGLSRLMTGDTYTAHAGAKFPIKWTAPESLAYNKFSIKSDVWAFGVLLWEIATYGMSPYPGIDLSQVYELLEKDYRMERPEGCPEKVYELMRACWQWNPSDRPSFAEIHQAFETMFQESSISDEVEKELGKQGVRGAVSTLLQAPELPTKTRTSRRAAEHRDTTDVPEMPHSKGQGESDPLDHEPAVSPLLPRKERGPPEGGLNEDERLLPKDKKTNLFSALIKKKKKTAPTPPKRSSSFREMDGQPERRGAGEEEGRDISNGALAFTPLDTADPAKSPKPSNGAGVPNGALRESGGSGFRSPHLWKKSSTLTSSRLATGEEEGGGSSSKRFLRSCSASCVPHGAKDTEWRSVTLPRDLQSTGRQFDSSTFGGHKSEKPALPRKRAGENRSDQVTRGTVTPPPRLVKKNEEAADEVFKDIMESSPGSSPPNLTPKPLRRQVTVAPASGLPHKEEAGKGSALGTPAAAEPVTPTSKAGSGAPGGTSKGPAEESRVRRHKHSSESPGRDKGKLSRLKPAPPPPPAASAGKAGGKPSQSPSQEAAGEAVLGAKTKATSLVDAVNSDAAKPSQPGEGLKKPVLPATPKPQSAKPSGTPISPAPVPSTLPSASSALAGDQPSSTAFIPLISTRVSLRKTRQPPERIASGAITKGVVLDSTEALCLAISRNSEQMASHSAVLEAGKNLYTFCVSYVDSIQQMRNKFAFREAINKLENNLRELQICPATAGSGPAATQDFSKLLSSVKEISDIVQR

[6] = target: AURORA-A (Homo sapiens, UniProt O14965); assay: Nanosyn kinase profiling, mobility shift assay; conditions: read-out: % inhibition by neratinib
Sequence of AURORA-A (O14965 whole entry): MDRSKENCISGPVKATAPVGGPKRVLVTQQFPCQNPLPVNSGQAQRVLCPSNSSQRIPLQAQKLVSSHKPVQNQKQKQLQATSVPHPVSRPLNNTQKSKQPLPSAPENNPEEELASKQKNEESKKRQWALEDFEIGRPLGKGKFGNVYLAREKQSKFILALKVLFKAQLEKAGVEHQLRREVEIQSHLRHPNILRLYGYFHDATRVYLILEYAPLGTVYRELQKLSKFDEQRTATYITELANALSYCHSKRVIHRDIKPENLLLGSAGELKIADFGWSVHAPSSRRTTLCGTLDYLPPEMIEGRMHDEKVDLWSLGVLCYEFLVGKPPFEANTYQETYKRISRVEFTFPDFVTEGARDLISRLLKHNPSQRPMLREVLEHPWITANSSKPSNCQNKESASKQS

[7] = target: JAK2 (Homo sapiens, UniProt O60674); assay: Nanosyn kinase profiling, mobility shift assay; conditions: read-out: % inhibition by neratinib
Sequence of JAK2 (O60674 whole entry): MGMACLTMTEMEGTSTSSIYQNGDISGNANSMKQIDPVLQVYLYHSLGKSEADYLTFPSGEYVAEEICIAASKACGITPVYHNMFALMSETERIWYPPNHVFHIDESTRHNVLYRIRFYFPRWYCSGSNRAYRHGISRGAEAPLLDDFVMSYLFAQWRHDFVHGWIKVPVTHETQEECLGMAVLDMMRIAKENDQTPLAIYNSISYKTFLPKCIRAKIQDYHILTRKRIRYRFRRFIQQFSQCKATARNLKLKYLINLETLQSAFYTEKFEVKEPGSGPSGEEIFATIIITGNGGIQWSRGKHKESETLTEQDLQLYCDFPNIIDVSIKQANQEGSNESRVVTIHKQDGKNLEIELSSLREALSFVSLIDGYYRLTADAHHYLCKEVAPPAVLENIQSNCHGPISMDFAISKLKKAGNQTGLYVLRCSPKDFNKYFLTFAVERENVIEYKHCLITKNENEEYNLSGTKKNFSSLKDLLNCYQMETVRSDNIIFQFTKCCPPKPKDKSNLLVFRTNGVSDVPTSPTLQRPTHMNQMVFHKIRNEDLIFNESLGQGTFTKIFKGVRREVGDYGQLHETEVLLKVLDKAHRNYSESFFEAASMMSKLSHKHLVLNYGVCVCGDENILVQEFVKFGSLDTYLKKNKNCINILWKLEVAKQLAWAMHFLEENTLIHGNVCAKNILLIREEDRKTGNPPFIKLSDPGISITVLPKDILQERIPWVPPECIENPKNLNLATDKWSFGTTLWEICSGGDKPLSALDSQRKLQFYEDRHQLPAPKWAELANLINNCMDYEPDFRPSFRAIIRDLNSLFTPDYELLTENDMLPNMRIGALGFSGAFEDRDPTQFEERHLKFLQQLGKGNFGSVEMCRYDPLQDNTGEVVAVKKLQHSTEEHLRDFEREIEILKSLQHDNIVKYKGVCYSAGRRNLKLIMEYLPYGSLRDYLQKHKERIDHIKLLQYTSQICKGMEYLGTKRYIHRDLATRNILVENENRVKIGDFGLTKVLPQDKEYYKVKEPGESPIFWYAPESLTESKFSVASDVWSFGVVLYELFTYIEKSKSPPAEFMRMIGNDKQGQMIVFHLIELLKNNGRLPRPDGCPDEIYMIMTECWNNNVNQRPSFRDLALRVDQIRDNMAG

[8] = target: MEK6 (Homo sapiens, UniProt P52564); assay: Nanosyn kinase profiling, mobility shift assay; conditions: read-out: % inhibition by neratinib
Sequence of MEK6 (P52564 whole entry): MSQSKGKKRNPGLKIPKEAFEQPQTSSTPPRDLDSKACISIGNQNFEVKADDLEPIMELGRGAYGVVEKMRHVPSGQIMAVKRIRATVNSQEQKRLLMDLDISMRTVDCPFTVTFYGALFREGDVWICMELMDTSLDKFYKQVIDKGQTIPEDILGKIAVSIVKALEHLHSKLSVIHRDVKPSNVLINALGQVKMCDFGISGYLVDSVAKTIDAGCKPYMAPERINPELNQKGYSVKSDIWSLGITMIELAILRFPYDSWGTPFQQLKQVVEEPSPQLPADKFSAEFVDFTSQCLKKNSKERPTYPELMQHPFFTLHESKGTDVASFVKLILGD

[9] = target: PYK2 (Homo sapiens, UniProt Q14289); assay: Nanosyn kinase profiling, mobility shift assay; conditions: read-out: % inhibition by neratinib
Sequence of PYK2 (Q14289 whole entry): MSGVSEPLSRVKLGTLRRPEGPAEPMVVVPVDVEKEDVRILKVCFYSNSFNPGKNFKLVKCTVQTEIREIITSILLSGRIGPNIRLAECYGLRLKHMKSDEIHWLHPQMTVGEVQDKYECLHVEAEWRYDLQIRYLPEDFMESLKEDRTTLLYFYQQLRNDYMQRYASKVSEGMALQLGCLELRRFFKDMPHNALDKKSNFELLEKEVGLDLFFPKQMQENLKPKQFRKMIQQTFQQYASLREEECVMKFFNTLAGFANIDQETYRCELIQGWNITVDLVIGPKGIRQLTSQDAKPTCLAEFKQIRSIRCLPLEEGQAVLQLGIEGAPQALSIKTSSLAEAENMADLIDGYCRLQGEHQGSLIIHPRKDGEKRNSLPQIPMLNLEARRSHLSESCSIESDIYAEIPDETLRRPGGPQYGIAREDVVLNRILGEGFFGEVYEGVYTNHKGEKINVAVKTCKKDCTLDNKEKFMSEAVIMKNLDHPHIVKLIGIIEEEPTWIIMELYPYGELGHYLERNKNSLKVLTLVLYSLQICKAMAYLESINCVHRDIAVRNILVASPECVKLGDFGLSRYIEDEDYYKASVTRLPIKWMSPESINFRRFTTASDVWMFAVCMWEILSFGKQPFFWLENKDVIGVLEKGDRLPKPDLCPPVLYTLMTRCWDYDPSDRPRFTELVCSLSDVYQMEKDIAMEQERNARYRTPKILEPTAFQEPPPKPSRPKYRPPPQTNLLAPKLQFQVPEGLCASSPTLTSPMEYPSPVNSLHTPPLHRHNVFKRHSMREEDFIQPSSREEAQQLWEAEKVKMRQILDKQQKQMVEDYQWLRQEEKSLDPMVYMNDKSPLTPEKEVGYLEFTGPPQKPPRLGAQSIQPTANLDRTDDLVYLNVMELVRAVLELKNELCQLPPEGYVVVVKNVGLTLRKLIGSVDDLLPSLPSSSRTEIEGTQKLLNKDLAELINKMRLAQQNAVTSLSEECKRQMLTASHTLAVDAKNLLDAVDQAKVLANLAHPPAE

CCOc1cc2ncc(C#N)c(Nc3ccc(OCc4ccccn4)c(Cl)c3)c2cc1NC(=O)/C=C/CN(C)C [neratinib]
number of kinases with 50% of inhibition [1]: 59 | toxicity at basal control levels ([2]; 25 µM neratinib, human islets): did not result in any detectable toxicity | mean TUNEL/isolation/% ([2]; HG/Pal + NERA, mean of isolations, untreated = 100): 180.73% | mean TUNEL/isolation/% ([2]; HG/Pal + NERA, single islet isolations, untreated mean = 100): 224.286% and 136.508% and 181.395% | mean TUNEL/isolation/% ([2]; ILIF + NERA, mean of isolations, untreated = 100): 205.757% | insulin sensitivity (normalized glucose levels) ([3]; MLD–STZ study): neither neratinib nor STZ had a significant effect | ipITT glucose ([3]; NeraCtr, 0 min, Mean): 130.4 | ipITT glucose normalized to 100, MEAN ([3]; NeraCtr, 0 min after ins): 100 | ipITT glucose ([3]; NeraCtr, 0 min after ins, individual mice): 135 and 120 and 117 and 132 and 148 | ipITT glucose ([3]; NeraCtr, 15 min, Mean): 84.6 | ipITT glucose normalized to 100, MEAN ([3]; NeraCtr, 15 min after ins): 64.88 | ipITT glucose ([3]; NeraCtr, 15 min after ins, individual mice): 94 and 83 and 116 and 55 and 75 | ipITT glucose ([3]; NeraCtr, 30 min, Mean): 84.4 | ipITT glucose normalized to 100, MEAN ([3]; NeraCtr, 30 min after ins): 64.72 | ipITT glucose ([3]; NeraCtr, 30 min after ins, individual mice): 80 and 67 and 123 and 71 and 81 | ipITT glucose ([3]; NeraCtr, 60 min, Mean): 82.8 | ipITT glucose normalized to 100, MEAN ([3]; NeraCtr, 60 min after ins): 63.5 | ipITT glucose ([3]; NeraCtr, 60 min after ins, individual mice): 84 and 80 and 121 and 48 and 81 | ipITT glucose ([3]; NeraCtr, 90 min, Mean): 89 | ipITT glucose normalized to 100, MEAN ([3]; NeraCtr, 90 min after ins): 68.25 | ipITT glucose ([3]; NeraCtr, 90 min after ins, individual mice): 90 and 87 and 129 and 52 | ipITT glucose ([3]; NeraSTZ, 0 min, Mean): 286.636 | ipITT glucose normalized to 100, MEAN ([3]; NeraSTZ, 0 min after ins): 100 | ipITT glucose ([3]; NeraSTZ, 0 min after ins, individual mice): 462 and 369 and 228 and 215 and 295 and 196 and 335 and 337 and 212 and 296 and 208 | ipITT glucose ([3]; NeraSTZ, 15 min, Mean): 267.636 | ipITT glucose normalized to 100, MEAN ([3]; NeraSTZ, 15 min after ins): 93.37 | ipITT glucose ([3]; NeraSTZ, 15 min after ins, individual mice): 244 and 341 and 151 and 180 and 262 and 206 and 353 and 362 and 225 and 333 and 287 | ipITT glucose ([3]; NeraSTZ, 30 min, Mean): 187.273 | ipITT glucose normalized to 100, MEAN ([3]; NeraSTZ, 30 min after ins): 65.33 | ipITT glucose ([3]; NeraSTZ, 30 min after ins, individual mice): 114 and 186 and 102 and 127 and 207 and 173 and 304 and 307 and 97 and 216 and 227 | ipITT glucose ([3]; NeraSTZ, 60 min, Mean): 132.545 | ipITT glucose normalized to 100, MEAN ([3]; NeraSTZ, 60 min after ins): 46.24 | ipITT glucose ([3]; NeraSTZ, 60 min after ins, individual mice): 123 and 110 and 79 and 95 and 108 and 169 and 231 and 87 and 198 and 150 | ipITT glucose ([3]; NeraSTZ, 90 min, Mean): 132.455 | ipITT glucose normalized to 100, MEAN ([3]; NeraSTZ, 90 min after ins): 46.21 | ipITT glucose ([3]; NeraSTZ, 90 min after ins, individual mice): 174 and 97 and 79 and 135 and 116 and 100 and 155 and 203 and 103 and 136 and 159 | activity on MST family members [4]: potent activity | inhibition at 10 µM [5]: 36% | inhibition at 10 µM [6]: 28% | inhibition at 10 µM [7]: 18% | inhibition at 10 µM [8]: 9% | inhibition at 10 µM [9]: 41%
